Experiments:
NLRP3 inflammasome [1] = target: T1, NLRP3 inflammasome (Homo sapiens, UniProt Q96P20); experiment: Inflammasome activation by nigericin/MSU in differentiated, primed THP-1 cells (IL-1β ELISA, Western blot); format: cell-based; conditions: for accumulation of mature IL-1β in the cells (lysate): THP-1, 10 μM 30 min before nigericin, 2.5 h, FIG. 8D; for IL-1β secretion: THP-1, 10 μM 1 h before 5 μM nigericin or 150 μg/ml MSU, 5 h, FIG. 2B
T1 construct: endogenous in cells
Text: To determine the effects of Nrf2 activating compounds on inflammasome activation, the inventors treated keratinocytes with different doses of SFN, tBHQ, DMF or 15d-PGJ2 and irradiated the cells with UVB.
SFN, DMF, 15d-PGJ2, tBHQ, zymosan, ATP, poly(dA:dT), cycloheximide, puromycin, and doxycycline were purchased from Sigma (Munich, Germany), nigericin from Enzo Life Sciences (New York, US-NY), MG132 from Calbiochem (Darmstadt, Germany), and blasticidin from Invivogen (Toulouse, France). Release of IL-1p was determined by ELISA according the instructions of the manufacturer (R&D Systems, Minneapolis, US-MN). MSU crystals were prepared by crystallisation of a supersaturated solution of uric acid under mildly basic conditions. Briefly, uric acid was added to a solution of NaOH, the solution was boiled until the uric acid was dissolved and passed through a filter. NaCl was added and crystallisation was performed at 4° C. Crystals were filtered, then dried using a speedvac, weighted and autoclaved.
(A) HPKs were treated with the indicated concentrations of the Nrf2 activating compound tBHQ irradiated with UVB 30 min later and harvested after 5 h. ELISA measurements were performed for quantification of IL-1β secretion and Western blots for analysis of expression and activation of the indicated proteins. Specific bands are marked with an asterisk. (B) THP-1 cells were differentiated with PMA (27 nM) for 3 d, primed with upLPS (100 ng/ml) overnight, and 1 h before inflammasome activation (5 μM nigericin, 150 μg/ml MSU) treated with SFN (10 μM), 15-PGJ2 (10 μM) or DMF (50 μM) (15-PG: 15-PGJ2). Cells and supernatants were harvested after 5 h and analysed for inflammasome activation by ELISA measurement of IL-1p and Western blots as indicated. (C) Freshly isolated PBMCs from human blood were primed overnight with upLPS (100 ng/ml) and treated with SFN (10 μM), tBHQ (10 μM), DMF (50 μM) or 15-PGJ2 (10 μM) 1 h before inflammasome activation by nigericin (5 μM). ELISA measurement for secretion of IL-1β as readout for inflammasome activation was performed after 5 h. (D) HPKs or (E) differentiated and primed THP-1 cells were pretreated with cycloheximide (CHX, 30 μg/ml) to block protein synthesis for 1 h before SFN (10 μM) was added to the cells and after an additional hour the inflammasome was activated by (D) irradiation with UVB or (E) treatment with nigericin (5 μM). Cells and supernatants were harvested after (D) 6 h or (E) 3.5 h and analysed for inflammasome activation by Western blot as indicated. (A-E) Representative experiments performed at least three times are shown. Statistics: (A-C) Error bars represent the mean±SD of a representative experiment performed in triplicates. One-way ANOVA was performed. **P≤0.01; ***P≤0.001.
(A-C) HPKs were irradiated with (A) UVB or treated with (B) nigericin (5 μM) and cells and supernatants were harvested at different time points as indicated. Western blots for expression and activation of the indicated proteins. Specific bands are marked with an asterisk. (C) Expression of Nrf2 and Nrf2 target genes was determined by qRT-PCR. (D, E) THP-1 cells were differentiated with PMA (27 nM) for 3 d, primed with upLPS (100 ng/ml) overnight and treated with nigericin (5 μM) or MSU (150 μg/ml). Cells and supernatants were harvested at different time points as indicated and analysed for (D) expression and activation of the proteins as indicated by Western blot and (E) expression of Nrf2 and Nrf2 target genes by qRT-PCR. (F) HPKs were transfected with specific siRNAs as indicated (scr: scrambled, c1: caspase-1, K1; Keap1), 2 d later irradiated with UVB or treated with nigericin (5 μM). Cells were harvested after 1 h or 5 h, and lysates were analysed for the expression of the indicated proteins by Western blot.

[2] = system: Monosodium urate (MSU) crystal-induced peritonitis; experiment: MSU crystal-induced peritonitis mouse model (neutrophils in peritoneal lavage); format: in vivo; conditions: mice, oral gavage 25 mg/kg in PBS for two days, 6 h post 2 mg MSU crystals, vs control mice, FIG. 3B
Method: (§1) Monosodium urate (MSU) crystal-induced peritonitis is a mouse model of inflammation and gout, which is dependent on IL-1, IL-1R1, MyD88 and the NLRP3 inflammasome. […] The inventors chose a different way of administration and supplied mice with SFN or DMF by oral gavage to determine a potential anti-inflammatory activity of the Nrf2 activators in vivo (FIG. 3). […] The inventors analysed the cellular infiltrate in the peritoneum 6 h post injection of MSU crystals.
Mice were challenged with 2 mg of MSU crystals for 6 hours as previously described (Chen et a Olin Invest 2006. 116: 2262-2271).
Mice treated by gavage with (A, B, C) SFN (25 mg/kg) in PBS or (D, E, F) DMF (20 mg/kg) in H2O containing 0.08% methocel and 10% DMSO, vehicle-treated mice served as control. Regime for (A) SFN or (D) DMF treatment. Peritonitis was induced by peritoneal injection of 2 mg MSU crystals, (B, E) After 6 h the number of neutrophils of the peritoneal lavage was determined by flow cytornetry. […] Statistics: Student's t-test. (B, C) n≥3, (E, F) n=7. *P≤0.05; **P≤0.01

[3] = system: Nrf2 target genes Gstp1, Nqo1 and Srxn1; experiment: Nrf2 target gene expression in liver of treated mice (qRT-PCR); format: in vivo, mouse; conditions: oral gavage 25 mg/kg, FIG. 3C
Method: as §1
qRT-PCR was performed with the LightCycler 480 SYBR Green Master or the FastStart Universal SYBR Green Master (both Roche, Rotkreuz, Switzerland) using total cellular RNA. Specific primer pairs (Supplementary Table 2) were designed to generate an approximately 150 bp fragment flanking an intron-exon border of the corresponding gene. […]
Mice treated by gavage with (A, B, C) SFN (25 mg/kg) in PBS or (D, E, F) DMF (20 mg/kg) in H2O containing 0.08% methocel and 10% DMSO, vehicle-treated mice served as control. […] Peritonitis was induced by peritoneal injection of 2 mg MSU crystals, (B, E) After 6 h the number of neutrophils of the peritoneal lavage was determined by flow cytornetry. (C, F) At the same time, the liver was isolated and analysed for the expression of the Nrf2 target genes Gstp1, Nqo1 and Srxn1 by qRT-PCR. […]

NLRP3 inflammasome [4] = target: NLRP3 inflammasome (Mus musculus, UniProt Q8R4B8); conditions: BMDCs from wt and Nrf2 knockout mice, 10 μM 1 h before 5 μM nigericin, 4.5 h, FIG. 5D,E
NLRP3 inflammasome (Mus musculus, UniProt Q8R4B8), sequence (Q8R4B8 whole entry): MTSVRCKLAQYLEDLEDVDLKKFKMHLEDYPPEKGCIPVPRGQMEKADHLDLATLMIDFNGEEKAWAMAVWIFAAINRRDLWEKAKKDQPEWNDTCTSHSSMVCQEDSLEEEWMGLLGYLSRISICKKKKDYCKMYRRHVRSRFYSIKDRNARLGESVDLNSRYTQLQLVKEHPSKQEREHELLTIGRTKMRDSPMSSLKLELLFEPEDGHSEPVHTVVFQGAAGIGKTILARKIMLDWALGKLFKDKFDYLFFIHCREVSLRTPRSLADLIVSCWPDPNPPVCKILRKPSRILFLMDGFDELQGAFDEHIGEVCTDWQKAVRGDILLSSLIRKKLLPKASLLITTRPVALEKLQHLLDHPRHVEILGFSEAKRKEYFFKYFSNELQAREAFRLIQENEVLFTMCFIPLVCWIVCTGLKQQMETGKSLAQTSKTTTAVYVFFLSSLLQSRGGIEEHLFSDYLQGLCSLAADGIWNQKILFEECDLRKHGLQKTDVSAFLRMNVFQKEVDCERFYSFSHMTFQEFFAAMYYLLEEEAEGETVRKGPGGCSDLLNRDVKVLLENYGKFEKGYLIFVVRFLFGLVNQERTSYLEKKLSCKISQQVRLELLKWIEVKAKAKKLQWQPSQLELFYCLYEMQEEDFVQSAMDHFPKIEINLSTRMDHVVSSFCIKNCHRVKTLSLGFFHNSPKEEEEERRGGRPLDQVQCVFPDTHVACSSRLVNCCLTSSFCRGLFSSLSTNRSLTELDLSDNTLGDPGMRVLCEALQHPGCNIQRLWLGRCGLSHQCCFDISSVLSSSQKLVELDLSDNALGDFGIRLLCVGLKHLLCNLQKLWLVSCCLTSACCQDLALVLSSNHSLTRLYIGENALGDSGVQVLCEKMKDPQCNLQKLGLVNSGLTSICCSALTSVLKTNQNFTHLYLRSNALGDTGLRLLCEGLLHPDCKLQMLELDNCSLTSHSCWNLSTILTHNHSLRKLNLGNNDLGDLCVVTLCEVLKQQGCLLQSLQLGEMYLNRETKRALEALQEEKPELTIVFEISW
Method: To address this possibility, the inventors treated BMDCs from wild-type and Nrf2 knockout mice with SFN or vehicle (FIG. 5 D, E).
(D, E) DCs were differentiated from the bone marrow of wt and Nrf2 knockout mice (n=4), primed overnight with upLPS and treated with the solvent DMSO (ctrl) or SFN (10 μM). After 1 h, BMDCs were treated with 5 μM nigericin and harvested 4.5 h later. (D) Western blots for expression and activation of the indicated proteins and (E) ELISA for quantification of secretion of IL-1p. […] IL-1β secretion was determined by ELISA. […] (A-E) Representative experiments performed at least three times are shown. (E) Error bars represent the mean±SD of a representative experiment performed in triplicates.

ASC = conditions: THP1, 10 μM, nigericin 5 μM for 2.5 h, FIG. 5F
Method: In order to analyse, at which level SFN blocks inflammasome activation, the inventors determined the formation of ASC specks in SFN-treated and inflammasome activated THP1 cells (FIG. 5F). Formation of ASC specks is an upstream event of inflammasome activation.
ASC specks were analysed as described (Nara et al., Nat Immunol 2013. 14: 1247-1255),
(F) THP1 cells (3 d differentiated with TPA, overnight primed with LPS) were stimulated with SFN (10 μM) or the solvent DMSO and mock-treated or with nigericin (5 μM) for 2.5 h. Lysates were harvested in Triton buffer and analysed for soluble and insoluble (indicating speck formation) ASC or in DSS-containing buffer for detection of ASC monomers, dimers and oligomers by Western blotting. IL-1β secretion was determined by ELISA.

[5] = target: caspase-1 / Rbx1 interaction (Homo sapiens, UniProt P29466); conditions: HPKs, 50 μM, harvested 1 h later, FIG. 5C
caspase-1 / Rbx1 interaction, sequence (P29466 120-404): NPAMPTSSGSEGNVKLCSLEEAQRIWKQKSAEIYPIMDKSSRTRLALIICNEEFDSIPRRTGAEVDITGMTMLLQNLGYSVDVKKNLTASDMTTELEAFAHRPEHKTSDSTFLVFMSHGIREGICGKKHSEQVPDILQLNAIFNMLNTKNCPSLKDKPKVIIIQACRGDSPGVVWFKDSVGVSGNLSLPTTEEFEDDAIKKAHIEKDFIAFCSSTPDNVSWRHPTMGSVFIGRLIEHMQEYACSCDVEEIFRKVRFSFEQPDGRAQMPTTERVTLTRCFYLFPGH
Method: To address this point, the inventors performed co-immunoprecipitation (co-IP) experiments with an antibody for caspase-1 and lysates of HPKs. […] In addition, the inventors overexpressed a FLAG-tagged version of caspase-1 in HPKs and precipitated the protease with an ANTI-FLAG M2 Affinity Gel (FIG. 5B).
Co-immunoprecipitation (co-IP) was performed with lysates of HPKs as described (Sollberger et al., J Immunol 2012. 188: 1992-2000). Briefly, HPKs were grown in 10 cm dishes, transfected with siRNA (scr or siRNA targeting Rbx1), and propagated to 80% confluency (3 days), Four dishes were harvested in 150 μl co-IP buffer with complete proteinase inhibitor (Roche, Rotkreuz, Switzerland), respectively. After treatment in a douncer, the lysates were centrifuged (20 min, 17 000×g). The supernatant was diluted 1: 1 with co-IP buffer and incubated with 20 μg antibody (caspase-1 or HA). After centrifugation, 150 μl (50 mg/ml) protein A Sepharose (GE Healthcare, Little Chalfront, UK) was added. After 90 min, the beads were washed four times with co-IP buffer and resuspended in 100 μl 2×loading SDS buffer. Alternatively, co-immunoprecipitation was performed using an ANTI-FLAG® M2 Affinity Gel (Sigma). HPKs were grown in 10 cm dishes and transduced with lentiviral constructs encoding FLAG-tagged caspase-1 or GFP as described above. […]

T1 sequence (Q96P20 whole entry): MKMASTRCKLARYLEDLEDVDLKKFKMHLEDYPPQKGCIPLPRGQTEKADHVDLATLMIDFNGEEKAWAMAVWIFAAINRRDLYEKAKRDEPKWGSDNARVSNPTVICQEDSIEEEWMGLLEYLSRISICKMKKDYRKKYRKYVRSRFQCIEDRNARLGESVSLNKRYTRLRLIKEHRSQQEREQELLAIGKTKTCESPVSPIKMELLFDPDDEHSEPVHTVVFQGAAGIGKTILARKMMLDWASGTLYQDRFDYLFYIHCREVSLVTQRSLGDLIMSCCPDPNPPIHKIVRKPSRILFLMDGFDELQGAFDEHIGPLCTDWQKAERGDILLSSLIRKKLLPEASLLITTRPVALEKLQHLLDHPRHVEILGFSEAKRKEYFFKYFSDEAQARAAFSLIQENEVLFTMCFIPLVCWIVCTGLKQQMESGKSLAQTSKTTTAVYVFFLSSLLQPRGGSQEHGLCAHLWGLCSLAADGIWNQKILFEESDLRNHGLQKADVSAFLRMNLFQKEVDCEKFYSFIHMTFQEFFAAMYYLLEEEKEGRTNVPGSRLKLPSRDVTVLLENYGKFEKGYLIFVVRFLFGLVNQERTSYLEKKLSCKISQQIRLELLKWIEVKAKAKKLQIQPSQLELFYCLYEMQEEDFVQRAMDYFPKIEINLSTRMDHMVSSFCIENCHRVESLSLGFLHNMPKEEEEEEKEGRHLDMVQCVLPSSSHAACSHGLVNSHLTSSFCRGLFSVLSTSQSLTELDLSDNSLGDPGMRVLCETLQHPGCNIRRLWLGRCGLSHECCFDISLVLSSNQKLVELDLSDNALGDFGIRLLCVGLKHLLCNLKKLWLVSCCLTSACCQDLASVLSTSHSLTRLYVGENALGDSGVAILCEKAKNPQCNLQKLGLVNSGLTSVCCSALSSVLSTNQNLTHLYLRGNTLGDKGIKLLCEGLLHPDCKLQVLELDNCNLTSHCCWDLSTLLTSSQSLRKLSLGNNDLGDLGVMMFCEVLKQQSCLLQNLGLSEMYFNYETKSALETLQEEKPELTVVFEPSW

SMILES: CCCCCC=CC=C1C(=O)C=CC1CC=CCCCC(=O)O [15d-PGJ2, 15-deoxy-D-prostaglandin J2]
- accumulation of mature IL-1β in the cells (lysate) (NLRP3 inflammasome [1]): mature IL-1β did not accumulate
- IL-1β secretion (NLRP3 inflammasome [1]): inhibited IL-1β secretion

SMILES: C[S+]([O-])CCCCN=C=S (centres unmarked) [SFN, sulforaphane]
- accumulation of mature IL-1β in the cells (lysate) (NLRP3 inflammasome [1]): mature IL-1β did not accumulate
- IL-1β secretion (NLRP3 inflammasome [1]): inhibited IL-1β secretion
- inflammasome inhibition by SFN with protein synthesis blocked by cycloheximide (NLRP3 inflammasome [1]; THP-1, CHX 30 μg/ml 1 h before SFN 10 μM, nigericin 5 μM 1 h later, 3.5 h, FIG. 2E): did not prevent inflammasome inhibition
- dependence of inflammasome inhibition on Keap1 (NLRP3 inflammasome [1]; THP-1 cells with knockout of Keap1, 10 μM pretreatment, nigericin 5 μM, 3.5 h, FIG. 4H): Keap1 independent
- number of neutrophils in the peritoneum [2]: significantly reduced
- expression of Nrf2 target genes in the liver [3]: increased mRNA expression
- secretion of IL-1β (NLRP3 inflammasome [4]): completely abolished secretion of the cytokine independently of Nrf2 expression
- ASC speck formation / oligomerization (ASC): prevented oligomerization of the adaptor protein
- interaction between caspase-1 and Rbx1 (co-IP) [5]: did not prevent the interaction between caspase-1 and Rbx1
